According to US4668689A, “Glutarimide derivatives for treating oestrogen-dependent tumors” (National Research Development Corporation, priority 1984, dated 1987):
Like-named read-outs stand apart in the source and are kept apart here.

What was measured:
desmolase [1] = conditions: literature; cited from earlier work
[2] = CNS (sedative-hypnotic) activity; conditions: in vivo
desmolase [3] = molecular target: T1, desmolase (Bos taurus, UniProt P00189); experiment: Desmolase inhibition, (26-^14C)-cholesterol as substrate (7 micromolar), mitochondrial fraction of bovine adrenal cortex; assay type: biochemical
T1 construct: The mitochondrial fraction of bovine adrenal cortex provided the source of desmolase; from tissue; host or cells: bovine adrenal cortex, mitochondrial fraction
T1 sequence (P00189 40-520): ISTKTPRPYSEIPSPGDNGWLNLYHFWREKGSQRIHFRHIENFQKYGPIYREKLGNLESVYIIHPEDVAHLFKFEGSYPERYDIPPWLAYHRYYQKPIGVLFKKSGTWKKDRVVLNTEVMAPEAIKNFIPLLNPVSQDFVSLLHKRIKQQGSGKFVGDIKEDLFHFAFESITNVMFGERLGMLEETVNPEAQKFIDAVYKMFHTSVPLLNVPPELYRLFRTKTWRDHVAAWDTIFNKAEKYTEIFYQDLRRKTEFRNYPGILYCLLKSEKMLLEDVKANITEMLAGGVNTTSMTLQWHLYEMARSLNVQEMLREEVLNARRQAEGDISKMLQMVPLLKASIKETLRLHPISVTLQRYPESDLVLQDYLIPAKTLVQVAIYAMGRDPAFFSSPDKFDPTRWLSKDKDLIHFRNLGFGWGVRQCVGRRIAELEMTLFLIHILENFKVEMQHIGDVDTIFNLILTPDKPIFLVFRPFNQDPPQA

aromatase [4] = molecular target: T2, aromatase (Homo sapiens, UniProt P11511); experiment: Aromatase inhibition, (1,2-^3H) androstene-3,17-dione as substrate (0.38 micromolar), microsomal fraction of human placental tissue; assay type: biochemical; conditions: 0.38 micromolar (^3H) androstene-3,17-dione, 30° C., "None" = no inhibition; for IC50: read-out: IC50 Aromatase Androstenedione
T2 construct: Aromatase was obtained from the microsomal fraction of human placental tissue; from tissue; host or cells: human placenta, microsomal fraction
T2 sequence (P11511 1-503): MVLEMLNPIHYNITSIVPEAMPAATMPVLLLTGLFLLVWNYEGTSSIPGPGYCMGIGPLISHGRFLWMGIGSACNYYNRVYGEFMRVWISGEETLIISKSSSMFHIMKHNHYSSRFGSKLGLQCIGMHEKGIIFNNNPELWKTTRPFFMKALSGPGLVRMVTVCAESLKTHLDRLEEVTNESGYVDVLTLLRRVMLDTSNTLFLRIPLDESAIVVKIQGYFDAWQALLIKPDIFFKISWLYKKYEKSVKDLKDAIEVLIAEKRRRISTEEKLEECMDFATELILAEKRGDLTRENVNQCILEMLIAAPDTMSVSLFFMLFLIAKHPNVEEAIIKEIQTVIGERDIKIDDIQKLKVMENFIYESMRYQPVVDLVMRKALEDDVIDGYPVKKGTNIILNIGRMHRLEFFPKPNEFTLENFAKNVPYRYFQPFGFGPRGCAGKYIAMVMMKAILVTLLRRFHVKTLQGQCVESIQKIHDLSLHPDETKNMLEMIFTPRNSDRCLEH

aromatase [5] = molecular target: T2, aromatase; experiment: Aromatase inhibition, (1,2-^3H) testosterone as substrate (1.5 micromolar), microsomal fraction of human placental tissue; assay type: biochemical; conditions: for IC50: 1.5 micromolar (^3H) testosterone; for IC50 / IC50 Aromatase Testosterone: 30° C., "None" = no inhibition; for IC50 Aromatase Testosterone: […] (^3H) testosterone; for aromatase inhibition (in words): substrate not stated
[6] = 7 micromolar (^14C) cholesterol, 30° C., "None" = no inhibition
[7] = 7 micromolar (^14C) cholesterol, 30° C., "None" = no inhibition, read-out: IC50 Desmolase

Row | IC50 Desmolase (desmolase [3]; [6]) | IC50 (aromatase [5]) [µM] | SMILES | also measured
1 |  | 14 | CCC1(c2ccncc2)CCC(=O)N(CC(F)(F)F)C1=O (centres unmarked) [R1=C2 H5, R2=CH2 CF3] | IC50 (aromatase [4]): 31 µM; IC50 (desmolase [3]; [7]): > 350 µM
2 | none | 11 | CCC1(c2ccncc2)CCC(=O)N(CCC(F)(F)F)C1=O (centres unmarked) [R1=C2 H5, R2=CH2 CH2 CF3] | IC50 (aromatase [4]): 42 µM
3 | none |  | CCC1(c2ccncc2)CCC(=O)N(C)C1=O (centres unmarked) [R1=C2 H5, R2=CH3] | 
4 | none | 9 | CCC1(c2ccncc2)CCC(=O)N(CC2CCCCC2)C1=O (centres unmarked) [R1=C2 H5, R2=[drawing 7]] | 
5 | none |  | CCCN1C(=O)CCC(CC)(c2ccncc2)C1=O (centres unmarked) [R1=C2 H5, R2=n-C3 H7] | 
6 | none |  | CCCCN1C(=O)CCC(CC)(c2ccncc2)C1=O (centres unmarked) [R1=C2 H5, R2=n-C4 H9] | 
7 | none |  | CCCCCCN1C(=O)CCC(CC)(c2ccncc2)C1=O (centres unmarked) [R1=C2 H5, R2=n-C6 H13] | 
8 | none | > 90 | CN1C(=O)CCC(C)(c2ccncc2)C1=O (centres unmarked) [R1=CH3, R2=CH3, reference compound] | 
9 | none |  | CCCC1(c2ccncc2)CCC(=O)NC1=O (centres unmarked) [R1=n-C3 H7, R2=H] | 
10 | none |  | CCCCC1(c2ccncc2)CCC(=O)NC1=O (centres unmarked) [R1=n-C4 H9, R2=H] | 
11 | none | 2.1 | CCCCN1C(=O)CCC(CCCC)(c2ccncc2)C1=O (centres unmarked) [R1=n-C4 H9, R2=n-C4 H9] | 
12 | none | 3.2 | CCCCCC1(c2ccncc2)CCC(=O)NC1=O (centres unmarked) [R1=n-C5 H11, R2=H] | 
13 | none | 2.1 | CCCCCCC1(c2ccncc2)CCC(=O)N(CC)C1=O (centres unmarked) [R1=n-C6 H13, R2=n-C2 H5] | 
14 |  | 10 | CCCCCCCCC1(c2ccncc2)CCC(=O)N(CCCCCC)C1=O (centres unmarked) [R1=n-C8 H17, R2=n-C6 H13, reference compound] | desmolase inhibition (in words) (desmolase [3]): significant desmolase inhibition; IC50 (desmolase [3]; [7]): 73 µM

More lines, now with the values behind:

Row | SMILES | IC50 Desmolase (desmolase [3]; [6]) | IC50 (aromatase [5]) [µM] | also measured
15 | CCC1(c2ccc(N)cc2)CCC(=O)NC1=O (centres unmarked) [Aminoglutethimide] |  |  | inhibition of desmolase (desmolase [1]): also inhibits the enzyme desmolase
16 | CCC1(c2ccncc2)CCC(=O)NC1=O (centres unmarked) [Pyridoglutethimide, 3-ethyl-3-(4-pyridyl)piperidine-2,6-dione] | none |  | CNS (sedative-hypnotic) activity [2]: little or no CNS (sedative-hypnotic) activity; inhibition of desmolase (desmolase [1]): not desmolase
17 | O=C1CCC(CCC(F)(F)C(F)(F)C(F)(F)F)(c2ccncc2)C(=O)N1 (centres unmarked) [R1=(CH2)2 (CF2)2 CF3, R2=H] | none | 18 | IC50 (aromatase [4]): 22 µM
18 | O=C1CCC(CCC(F)(F)C(F)(F)C(F)(F)C(F)(F)F)(c2ccncc2)C(=O)N1 (centres unmarked) [R1=(CH2)2 (CF2)3 CF3, R2=H, reference compound] | none | 18 | IC50 (aromatase [4]): 22 µM
19 | O=C1CCC(CCC(F)(F)C(F)(F)C(F)(F)C(F)(F)C(F)(F)C(F)(F)F)(c2ccncc2)C(=O)N1 (centres unmarked) [R1=(CH2)2 (CF2)5 CF3, R2=H, reference compound] |  |  | IC50 Aromatase Androstenedione (aromatase [4]): none; IC50 Aromatase Testosterone (aromatase [5]): none; IC50 (desmolase [3]): 93 µM
20 | O=C1CCC(CCC(F)(F)C(F)(F)C(F)(F)C(F)(F)C(F)(F)C(F)(F)C(F)(F)C(F)(F)F)(c2ccncc2)C(=O)N1 (centres unmarked) [R1=(CH2)2 (CF2)7 CF3, R2=H, reference compound] |  |  | IC50 Aromatase Androstenedione (aromatase [4]): none; IC50 (desmolase [3]): 79 µM
21 | O=C1CCC(CCC(F)(F)F)(c2ccncc2)C(=O)N1 (centres unmarked) [R1=(CH2)2 CF3, R2=H] | none | 2.9 | IC50 (aromatase [4]): 7 µM
22 | CCC1(c2ccncc2)CCC(=O)N(CCC(F)(F)C(F)(F)C(F)(F)F)C1=O (centres unmarked) [R1=C2 H5, R2=(CH2)2 (CF2)2 CF3] |  | 3 | IC50 (aromatase [4]): 15 µM; IC50 (desmolase [3]): 240 µM
23 | CCC1(c2ccncc2)CCC(=O)N(CCC(F)(F)C(F)(F)C(F)(F)C(F)(F)F)C1=O (centres unmarked) [R1=C2 H5, R2=(CH2)2 (CF2)3 CF3] |  | 9 | IC50 (aromatase [4]): 9 µM; IC50 (desmolase [3]): 120 µM
24 | CCC1(c2ccncc2)CCC(=O)N(CCC(F)(F)C(F)(F)C(F)(F)C(F)(F)C(F)(F)C(F)(F)F)C1=O (centres unmarked) [R1=C2 H5, R2=(CH2)2 (CF2)5 CF3] |  | 34 | IC50 (aromatase [4]): 23 µM; IC50 (desmolase [3]): 145 µM
25 | CCC1(c2ccncc2)CCC(=O)N(CCC(F)(F)C(F)(F)C(F)(F)C(F)(F)C(F)(F)C(F)(F)C(F)(F)C(F)(F)F)C1=O (centres unmarked) [R1=C2 H5, R2=(CH2)2 (CF2)7 CF3] |  | 15 | IC50 Aromatase Androstenedione (aromatase [4]): none; IC50 (desmolase [3]): 150 µM
26 | CCC1(c2ccncc2)CCC(=O)N(CC(F)(F)C(F)(F)C(F)(F)F)C1=O (centres unmarked) [R1=C2 H5, R2=CH2 (CF2)2 CF3] | none | 19 | IC50 (aromatase [4]): 106 µM
27 | CCN1C(=O)CCC(CC)(c2ccncc2)C1=O (centres unmarked) [R1=C2 H5, R2=n-C2 H5, reference compound] |  |  | IC50 (desmolase [3]; [7]): 92 µM
28 | CCCCCN1C(=O)CCC(CC)(c2ccncc2)C1=O (centres unmarked) [R1=C2 H5, R2=n-C5 H11] |  |  | IC50 (desmolase [3]; [7]): 209 µM
29 | CCCCCCCN1C(=O)CCC(CC)(c2ccncc2)C1=O (centres unmarked) [R1=C2 H5, R2=n-C7 H15] |  |  | IC50 (desmolase [3]; [7]): 210 µM
30 | CCCCCCCCN1C(=O)CCC(CC)(c2ccncc2)C1=O (centres unmarked) [R1=C2 H5, R2=n-C8 H17] |  |  | IC50 (desmolase [3]; [7]): 110 µM
31 | CCCCCCCCCN1C(=O)CCC(CC)(c2ccncc2)C1=O (centres unmarked) [R1=C2 H5, R2=n-C9 H19] |  |  | aromatase inhibition (in words) (aromatase [5]): dramatic increase; IC50 (desmolase [3]; [7]): 175 µM
32 | CCCCCCCCCCN1C(=O)CCC(CC)(c2ccncc2)C1=O (centres unmarked) [R1=C2 H5, R2=n-C10 H21] |  |  | IC50 (desmolase [3]; [7]): 340 µM
33 | CC1(c2ccncc2)CCC(=O)NC1=O (centres unmarked) [R1=CH3, R2=H, reference compound] | none |  | 
34 | CCCCCCC1(c2ccncc2)CCC(=O)NC1=O (centres unmarked) [R1=n-C6 H13, R2=H] | none | 3.8 | 
35 | CCCCCCCC1(c2ccncc2)CCC(=O)NC1=O (centres unmarked) [R1=n-C7 H15, R2=H] | none | 2 | 
36 | CCCCCCCCC1(c2ccncc2)CCC(=O)NC1=O (centres unmarked) [R1=n-C8 H17, R2=H] | none |  | 
37 | CCCCCCCCC1(c2ccncc2)CCC(=O)N(CCCC)C1=O (centres unmarked) [R1=n-C8 H17, R2=n-C4 H9, reference compound] |  |  | IC50 Aromatase Testosterone (aromatase [5]): none; aromatase inhibition (in words) (aromatase [5]): no aromatase inhibition; IC50 (desmolase [3]; [7]): 106 µM
38 | CCCCCCCCN1C(=O)CCC(CCCCCCCC)(c2ccncc2)C1=O (centres unmarked) [R1=n-C8 H17, R2=n-C8 H17, reference compound] |  |  | IC50 Aromatase Testosterone (aromatase [5]): none; IC50 (desmolase [3]; [7]): 169 µM
39 | CCCCCCCCCC1(c2ccncc2)CCC(=O)NC1=O (centres unmarked) [R1=n-C9 H19, R2=H] | none |  | 
